# Reference: US7947668B2, “Aminoalkyl sterol compounds having an anti-tumoral and neuroprotective activity” (Institut National de la Sante et de la Recherche Medicale, priority 2002, dated 2011)
# Assays:
# U937 cells = assay: Induction of vacuole production in the U937 tumoral cell line; format: cell-based, human; settings: 10 nM, 24 hours
# Experimental: U937 cells were treated with 10 nM of the compound according to example 9 for 24 hours. The treatment methods are those described in detail in example 55.
# A549 cells = assay: Actin and tubulin skeleton on treated A549 cells (fluorescence microscopy); format: cell-based, human
# Experimental: A549 cells were treated with the compound of example 9 according to the protocol described in detail in example 55; they are inoculated onto glass slides placed at the bottom of six-well culture dishes (NUNC) at a density of 50 000 cells per well in a nutrient medium of “RPMI 1640” type sold by the company “Gibco BRL”, supplemented with 10% fetal calf serum. The cells are then fixed with 3% paraformaldehyde solution and are permeabilized with a detergent solution containing 0.1% “Triton-X-100” in PBS. The actin skeleton of the treated cells was observed by labeling the cells with phalloidin-FITC.
# In this case, the A549 cells are labeled with an anti-γ-tubulin antibody and developed with an anti-IgG-FITC antibody.
# [1] = tested on: C57BL/6 mouse spleen monocytes; assay: Dendritogenesis on C57BL/6 mouse spleen monocytes; format: cell-based; settings: dose of 1 nM, 36 hours after the start of action
# Experimental: 1) On C57BL/6 Mouse Spleen Monocytes
# 5-week-old mice are sacrificed by cervical dislocation. They are then dissected. The spleens are removed under sterile conditions and then placed in a cold solution (4° C.) containing serum-free culture medium supplemented with antibiotics (streptomycin and penicillin). The spleens are ground in a sterile fume cupboard and then filtered through a 100 μm filter. The eluate is recovered and then centrifuged at 1000 rpm for 5 minutes at 4° C. The cell pellet is resuspended in phosphate-buffered saline (PBS) solution containing […], the purpose of which is to lyze the red blood cells. The suspension is centrifuged at 1000 rpm and the cells are then resuspended in PBS. The washing operation is performed twice. The final resuspension is performed in whole culture medium, and the cells are counted and distributed into six-well dishes at a density of 40 000 cells/ml. Four hours later, the adhering cells are washed vigorously with PBS in order to remove the cells that might remain attached to the adhering cells or to the culture dish.
# The conversion was obtained with a dose of 1 nM, the photograph having been taken 36 hours after the start of action of the product. The test product is that of example 9. The appearance of cellular extensions is observed, which is one of the main characteristics of activated dendritic cells.
structure (smiles),measurement,setting,value
"CC(C)CCC[C@@H](C)[C@H]1CC[C@H]2[C@@H]3C[C@@H](NCCc4c[nH]cn4)[C@@]4(O)C[C@@H](O)CC[C@]4(C)[C@H]3CC[C@]12C [Example 9, cholestane-3β,5α-diol-6β-N-[2-ethylamino(1H-imidazol-4-yl)]]",induction of vacuole production in U937 cells (electron microscopy),U937 cells,numerous intracytoplasmic vacuoles have appeared
same,actin skeleton of treated A549 cells (phalloidin-FITC),A549 cells; FIG. 12 photograph 2,"appearance of refringent vesicles, which are surrounded by actin"
same,tubulin skeleton of treated A549 cells (anti-γ-tubulin antibody),A549 cells; FIG. 13 photograph 2,"presence of intracytoplasmic vacuoles, which are not surrounded with γ-tubulin"
same,"morphological changes on the mouse monocytes, conversion into dendritic cells",[1],conversion resulting in dendritic cells
